According to patent US20030187240A1, “2' -modified oligonucleotides” (ISIS Pharmaceuticals, Inc., priority 1990, published 2003):
“Also recorded” adds a separate entry of the source. Strand notation (5' to 3'): a small letter for the sugar, then the base; units joined by * are phosphorothioate-linked, units joined directly phosphodiester-linked; [ ] holds rarer units or linkages, { } end groups; capitals alone tell only the bases. [OPr] = 2'-O-propyl ribonucleotide; d = 2'-deoxy (DNA); m = 2'-O-methyl; f = 2'-fluoro

How the values were obtained:
PKC-α mRNA = PKC-α mRNA levels by Northern blot analysis; assay type: cell-based, human; conditions: FIGS. 3, 4 and 5; result in words
Description: Oligonucleotides having SEQ ID NO: 4 were synthesized as uniformly phosphorothioate chimeric oligonucleotides having a centered deoxy gap of varying lengths flanked by 2′-O-methylated regions. These oligonucleotides (500 nM concentration) were tested for effects on PKC-α mRNA levels by Northern blot analysis.

[1] = tested on: codon-12 point mutation of mutant (activated) H-ras RNA; assay type: cell-based, human
ras mRNA = assay: Northern blot analysis of ras expression in T24 cells; assay type: cell-based, human; design: inhibition of ras expression / decrease of ras mRNA: concentration or dose not given beside the values
Description: The human urinary bladder cancer cell line T24 was obtained from the American Type Culture Collection (Rockville Md.). Cells were grown in McCoy's 5A medium with L-glutamine (GIBCO-BRL, Gaithersburg, Md.), supplemented with 10% heat-inactivated fetal calf serum and 50 U/ml each of penicillin and streptomycin. Cells were seeded on 100 mm plates. When they reached 70% confluency, they were treated with oligonucleotide. Plates were washed with 10 ml prewarmed PBS and 5 ml of OptiMEM (GIBCO) reduced-serum medium containing 2.5 μl DOTMA. Oligonucleotide was then added to the desired concentration. After 4 hours of treatment, the medium was replaced with McCoy's medium. Cells were harvested 48 hours after oligonucleotide treatment and RNA was isolated using a standard CsCl purification method. [Kingston in Current Protocols in Molecular Biology, F. M. Ausubel, R. Brent, R. E. Kingston, D. D. Moore, J. A. Smith, J. G. Seidman and K. Strahl, Eds., John Wiley and Sons, New York.] The human epithelioid carcinoma cell line HeLa 229 was obtained from the American Type Culture Collection (Bethesda, Md.). HeLa cells were maintained as monolayers on 6-well plates in Dulbecco's Modified Eagle's medium (DMEM) supplemented with 10 fetal bovine serum and 100 U/ml penicillin. Treatment with oligonucleotide and isolation of RNA were essentially as described above for T24 cells.
Northern hybridization: 10 μg of each RNA was electrophoresed on a 1.2% agarose/formaldehyde gel and transferred overnight to GeneBind 45 nylon membrane (Pharmacia LKB, Piscataway, N.J.) using standard methods. [Kingston in Current Protocols in Molecular Biology, F. M. Ausubel, R. Brent, R. E. Kingston, D. D. Moore, J. A. Smith, J. G. Seidman and K. Strahl, Eds., John Wiley and Sons, New York.] RNA was UV-crosslinked to the membrane. Double-stranded ^32P-labeled probes were synthesized using the Prime a Gene labeling kit (Promega, Madison Wis.). The ras probe was a SalI-NheI fragment of a cDNA clone of the activated (mutant) H-ras mRNA having a GGC-to-GTC mutation at codon-12. The control probe was G3PDH. Blots were prehybridized for 15 minutes at 68° C. with the QuickHyb hybridization solution (Stratagene, La Jolla, Calif.). The heat-denatured radioactive probe (2.5×10^6 counts/2 ml hybridization solution) mixed with 100 μl of 10 mg/ml salmon sperm DNA was added and the membrane was hybridized for 1 hour at 68° C. The blots were washed twice for 15 minutes at room temperature in 2×SSC/0.1% SDS and once for 30 minutes at 60° C. with 0.1×SSC/0.1%SDS. Blots were autoradiographed and the intensity of signal was quantitated using an ImageQuant PhosphorImager (Molecular Dynamics, Sunnyvale, Calif.). Northern blots were first hybridized with the ras probe, then stripped by boiling for 15 minutes in 0.1×SSC/0.1%SDS and rehybridized with the control G3PDH probe to check for correct sample loading.

[2] = tested on: complementary RNA strand (the sense strand); assay: Thermal melting analysis of 2′-deoxy-2′-fluoro modified oligonucleotides (Table 1); assay type: binding
[3] = tested on: RNA complement “Y” strand ribo(3′GAG CAU GGY AAG GCC AGG5′); assay: Base-pair specificity: single base-pair mismatches and a bulge (Table 2); assay type: binding
Description: The ability of the 2′-modified oligonucleotides to hybridize to their complementary RNA or DNA sequences was determined by thermal melting analysis. The RNA complement was synthesized from T7 RNA polymerase and a template-promoter of DNA synthesized with an Applied Biosystems, Inc. 380B RNA species was purified by ion exchange using FPLC (LKB Pharmacia, Inc.). Natural antisense oligonucleotides or those containing 2′-modifications at specific locations were added to either the RNA or DNA complement at stoichiometric concentrations and the absorbance (260 nm) hyperchromicity upon duplex to random coil transition was monitored using a Gilford Response II spectrophotometer. These measurements were performed in a buffer of 10 mM Na-phosphate, pH 7.4, 0.1 mM EDTA, and NaCl to yield an ionic strength of 10 either 0.1 M or 1.0 M. Data was analyzed by a graphic representation of 1/Tm vs ln[Ct], where [Ct] was the total oligonucleotide concentration. From this analysis the thermodynamic parameters were determined. Based upon the information gained concerning the stability of the duplex of heteroduplex formed, the placement of modified pyrimidine into oligonucleotides were assessed for their effects on helix stability.
Base-pair specificity of 2′-deoxy-2′-fluoro modified oligonucleotides with the RNA complement (a “Y” strand) was determined by effecting single base-pair mismatches and a bulge. […] In Table 2, the underlined nucleotides represent nucleotides that include a 2′-deoxy-2′-fluoro substituent.

[4] = G°37, antisense strand duplexed with RNA sense strand
[5] = first Tm column, duplex with RNA sense strand
[6] = difference (delta Tm) to the unmodified strand
[7] = difference to the unmodified strand
[8] = Y = C, mismatch, difference to Watson-Crick
[9] = Y = G, mismatch, difference to Watson-Crick
[10] = Y = None, bulged T/U, difference to Watson-Crick
[11] = Y = U, mismatch, difference to Watson-Crick

3522 (AsAsAsAsCsGsTsCsAsGsCsCsAsTsGsGsTsCsCsC; 2'-O-methyl/deoxy chimeric, phosphorothioate, as printed in the source, key not given here) [Oligonucleotide 3522]
effect on PKC-α mRNA levels (PKC-α mRNA): show reduction of PKC-α mRNA

3975 (CCACACCGACGGCGCCC; chimeric 2'-O-methyl phosphorothioate, pattern not given here) [Oligonucleotide 3975]
inhibition of ras-luciferase activity [1]: neither of the oligonucleotides having either the one or the three 2′-deoxy-erythro-pentofuranosyl nucleotide subsequences showed significant activity

3979 (CCACACCGACGGCGCCC; chimeric 2'-O-methyl phosphorothioate, pattern not given here) [Oligonucleotide 3979]
activity at the highest concentration dose [1]: measurable activity
inhibition of ras-luciferase activity [1]: neither of the oligonucleotides having either the one or the three 2′-deoxy-erythro-pentofuranosyl nucleotide subsequences showed significant activity

3980 (CCACACCGACGGCGCCC; chimeric 2'-O-methyl phosphorothioate, pattern not given here) [Oligonucleotide 3980]
inhibition of ras-luciferase activity [1]: next greatest inhibition
inhibition of ras expression / decrease of ras mRNA (ras mRNA): 61%

3984 (CCACACCGACGGCGCCC; chimeric 2'-O-methyl phosphorothioate, pattern not given here) [Oligonucleotide 3984]
inhibition of ras-luciferase activity [1]: greater inhibition of ras-luciferase activity than did oligonucleotide 2570
inhibition of ras expression / decrease of ras mRNA (ras mRNA): 81%

4998 (CTTATATTCCGTCATCGCTC; sugars from the 5' end m6 d7 m7, all phosphorothioate, methylation of C and T or U not given here) [Oligonucleotide 4998]
inhibition of ras expression / decrease of ras mRNA (ras mRNA): 84%

5352 (AAAACGTCAGCCATGGTCCC; sugars from the 5' end m6 d6 m8, all phosphorothioate, methylation of C and T or U not given here) [Oligonucleotide 5352]
effect on PKC-α mRNA levels (PKC-α mRNA): show reduction of PKC-α mRNA; also recorded: most active

6632 (dT*dT*dC*dT*dC*dG*dC*dT*dG*dG*dT*dG*dA*dG*dT*dT*dT*dC; antisense) [Oligonucleotide 6632]
effect on PKC-α mRNA levels (PKC-α mRNA): most active in reducing PKC-α mRNA levels

6653 (TTCTCGCTGGTGAGTTTC; antisense; sugars from the 5' end [OPr]3 d11 [OPr]4, all phosphorothioate, methylation of C not given here) [Oligonucleotide 6653]
effect on PKC-α mRNA levels (PKC-α mRNA): most active in reducing PKC-α mRNA levels

CTTATATTCCGTCATCGCTC [Oligonucleotide 2502]
inhibition of ras expression / decrease of ras mRNA (ras mRNA): 26%

CTC GTA CCT TCC GGT CC (CTCGTACCTTCCGGTCC; listed as DNA, chemistry not fully specified) [reference compound]
G°37 [2, 4]: -14.57 ± 0.13 kcal/mol
Tm (° C.) [2, 5]: 61.6 °C

CUC GUA CCU UCC GGU CC (CUCGUACCUUCCGGUCC; 2'-deoxy-2'-fluoro A, T, C, chemistry not fully specified)
G°37 [2, 4]: -27.81 ± 0.05 kcal/mol
Tm (° C.) [2, 6]: +1.4 °C
G°37 [2, 7]: -13.24 ± 0.14 kcal/mol
Tm (° C.) [2, 5]: 81.6 °C

C^MC^MA^M C^MA^MC^M CdGdAd CdGdG^M C^MG^MC^M C^MC^M [Oligonucleotide 3980]
inhibition of ras expression in T24 cells (ras mRNA; result in words): inhibited ras expression

CsCsAsCsAsCsCsGsAoCsGsGsCsGsCsCsC [Oligonucleotide 4248]
effect on ras expression (ras-luciferase reporter system), chimeric backbone-modified oligonucleotides [1]: just as active as a full P═S molecule

deoxy(CTC GTA CCT TTC CGG TCC) (CTCGTACCTTTCCGGTCC; DNA, backbone not given here) [reference compound]
G°37 ([3]; Y = A, Watson-Crick): -14.57 ± 0.13 kcal/mol
Tm (° C.) ([3]; Y = A, Watson-Crick): 61.6 °C
G°37 ([3]; Y = C, mismatch): -12.78 ± 0.11 kcal/mol
Tm (° C.) ([3]; Y = C, mismatch): 54.4 °C
G°37 [3, 8]: 1.79 ± 0.17 kcal/mol
Tm (° C.) [3, 8]: −7.2 °C
G°37 ([3]; Y = G, mismatch): -16.39 ± 0.25 kcal/mol
Tm (° C.) ([3]; Y = G, mismatch): 61.7 °C
G°37 [3, 9]: -1.82 ± 0.28 kcal/mol
Tm (° C.) [3, 9]: 0.1 °C
G°37 ([3]; Y = None, bulged T/U): -14.86 ± 0.35 kcal/mol
Tm (° C.) ([3]; Y = None, bulged T/U): 59.4 °C
G°37 [3, 10]: -0.284 ± 0.37 kcal/mol
Tm (° C.) [3, 10]: −2.2 °C
G°37 ([3]; Y = U, mismatch): -13.48 ± 0.17 kcal/mol
Tm (° C.) ([3]; Y = U, mismatch): 55.9 °C
G°37 [3, 11]: 1.09 ± 0.22 kcal/mol
Tm (° C.) [3, 11]: −5.7 °C

deoxy(CUC GUA CCU UUC CGG UCC) (CUCGUACCUUUCCGGUCC; sugars from the 5' end fffdfffffffffddffd, backbone, methylation of C and T or U not given here)
G°37 ([3]; Y = A, Watson-Crick): -27.80 ± 0.05 kcal/mol
Tm (° C.) ([3]; Y = A, Watson-Crick): 81.6 °C
G°37 ([3]; Y = C, mismatch): -21.98 ± 0.28 kcal/mol
Tm (° C.) ([3]; Y = C, mismatch): 73.8 °C
G°37 [3, 8]: 5.82 ± 0.28 kcal/mol
Tm (° C.) [3, 8]: −7.8 °C
G°37 ([3]; Y = G, mismatch): -21.69 ± 0.16 kcal/mol
Tm (° C.) ([3]; Y = G, mismatch): 77.8 °C
G°37 [3, 9]: 6.12 ± 0.17 kcal/mol
Tm (° C.) [3, 9]: −3.8 °C
G°37 ([3]; Y = None, bulged T/U): -22.87 ± 0.27 kcal/mol
Tm (° C.) ([3]; Y = None, bulged T/U): 75.5 °C
G°37 [3, 10]: 4.94 ± 0.27 kcal/mol
Tm (° C.) [3, 10]: −6.2 °C
G°37 ([3]; Y = U, mismatch): -18.68 ± 0.15 kcal/mol
Tm (° C.) ([3]; Y = U, mismatch): 73.6 °C
G°37 [3, 11]: 9.13 ± 0.16 kcal/mol
Tm (° C.) [3, 11]: −8.0 °C
specificity of duplex formation with the RNA complement ([3]; versus like-sequenced unmodified oligonucleotide): greater specificity than a like-sequenced unmodified oligonucleotide

oligonucleotide with the 2′-O-propyl diester flanking regions: SEQ ID NO: 1, phosphorothioate in the 7-base deoxy gap only, phosphodiester 2′-O-propyl flanking regions (DNA CCACACCGACGGCGCCC; 2'-O-propyl flanks, phosphorothioate gap, chemistry not fully specified)
effect on ras expression (ras-luciferase reporter system), chimeric backbone-modified oligonucleotides [1]: able to inhibit ras expression

ps(CGA CTA TGC AAG TAC) [reference compound]
G°37 [2, 4]: -7.58 ± 0.06 kcal/mol
Tm (° C.) [2, 6]: −11.2 °C
Tm (° C.) [2, 5]: 33.9 °C

ps(CGA CUA UGC AAG UAC)
G°37 [2, 4]: -15.90 ± 0.34 kcal/mol
Tm (° C.)/subst. ([2]; delta Tm per 2′-fluoro substitution): +2.5 °C
Tm (° C.) [2, 6]: +27.0 °C
G°37 [2, 7]: -8.32 ± 0.34 kcal/mol
Tm (° C.) [2, 5]: 60.9 °C
